# Measured values from PubChem BioAssay AID1963849 (Molecular Pharmacology Branch, DTP, NCI, 2024).
# System: 299254-011-R-J1-PDC complex spheroid viability
# Experiment: Anticancer human tumor 299254-011-R-J1-PDC patient-derived melanoma cell line growth inhibition [POLQ]
# Conditions: for IC50: curve of first compound; for viability, T/C: stronger effect = lower value
# How it was run: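 Complex spheroid viability model combining PDC tumour cells with endothelial (HUVEC) and MSC stromal cells. Novobiocin, ART-558 or RP6685 were tested singly and in combination with standard and investigational anticancer drugs. Each was titrated in half-log steps from near clinical Cmax, or from 10 microM where Cmax was unknown.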
# [1] = second compound 0.0316 µM, first compound 0.0316 µM
# [2] = second compound 0.0316 µM, first compound 0.1 µM
# [3] = second compound 0.0316 µM, first compound 0.316 µM
# [4] = second compound 0.0316 µM, first compound 1 µM
# [5] = second compound 0.0316 µM, first compound 3.16 µM
# [6] = second compound 0.0316 µM, first compound 10 µM
# [7] = second compound 0.1 µM, first compound 0.0316 µM
# [8] = second compound 0.1 µM, first compound 0.1 µM
# [9] = second compound 0.1 µM, first compound 0.316 µM
# [10] = second compound 0.1 µM, first compound 1 µM
# [11] = second compound 0.1 µM, first compound 3.16 µM
# [12] = second compound 0.1 µM, first compound 10 µM
# [13] = second compound 0.316 µM, first compound 0.0316 µM
# [14] = second compound 0.316 µM, first compound 0.1 µM
# [15] = second compound 0.316 µM, first compound 0.316 µM
# [16] = second compound 0.316 µM, first compound 1 µM
# [17] = second compound 0.316 µM, first compound 3.16 µM
# [18] = second compound 0.316 µM, first compound 10 µM
# [19] = second compound 1 µM, first compound 0.0316 µM
# [20] = second compound 1 µM, first compound 0.1 µM
# [21] = second compound 1 µM, first compound 0.316 µM
# [22] = second compound 1 µM, first compound 1 µM
# [23] = second compound 1 µM, first compound 3.16 µM
# [24] = second compound 1 µM, first compound 10 µM
# [25] = second compound 3.16 µM, first compound 0.0316 µM
# [26] = second compound 3.16 µM, first compound 0.1 µM
# [27] = second compound 3.16 µM, first compound 0.316 µM
# [28] = second compound 3.16 µM, first compound 1 µM
# [29] = second compound 3.16 µM, first compound 3.16 µM
# [30] = second compound 3.16 µM, first compound 10 µM
# [31] = second compound 10 µM, first compound 0.0316 µM
# [32] = second compound 10 µM, first compound 0.1 µM
# [33] = second compound 10 µM, first compound 0.316 µM
# [34] = second compound 10 µM, first compound 1 µM
# [35] = second compound 10 µM, first compound 3.16 µM
# [36] = second compound 10 µM, first compound 10 µM
# 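Further: spheroids exposed to drugs for one week before measurement.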
# 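Wherever viability, T/C is given: percent viability relative to DMSO vehicle control taken as 100%.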
smiles,measurement,setting,value
COc1cc2cc(C(=O)CCC(=O)O)sc2cc1OC + COC1C(OC(N)=O)C(O)C(Oc2ccc3c(O)c(NC(=O)c4ccc(O)c(CC=C(C)C)c4)c(=O)oc3c2C)OC1(C)C,IC50,second compound 0.0316 µM,> 10 µM
same,IC50,second compound 0.1 µM,> 10 µM
same,IC50,second compound 0.316 µM,> 10 µM
same,IC50,second compound 1 µM,> 10 µM
same,IC50,second compound 3.16 µM,> 10 µM
same,IC50,second compound 10 µM,> 10 µM
same,"viability, T/C",[1],112%
same,"viability, T/C",[2],98.3%
same,"viability, T/C",[3],106%
same,"viability, T/C",[4],100%
same,"viability, T/C",[5],113%
same,"viability, T/C",[6],102%
same,"viability, T/C",[7],95.8%
same,"viability, T/C",[8],109%
same,"viability, T/C",[9],101%
same,"viability, T/C",[10],116%
same,"viability, T/C",[11],99.2%
same,"viability, T/C",[12],114%
same,"viability, T/C",[13],112%
same,"viability, T/C",[14],93.1%
same,"viability, T/C",[15],104%
same,"viability, T/C",[16],110%
same,"viability, T/C",[17],113%
same,"viability, T/C",[18],109%
same,"viability, T/C",[19],91.8%
same,"viability, T/C",[20],104%
same,"viability, T/C",[21],104%
same,"viability, T/C",[22],109%
same,"viability, T/C",[23],104%
same,"viability, T/C",[24],125%
same,"viability, T/C",[25],108%
same,"viability, T/C",[26],96%
same,"viability, T/C",[27],94%
same,"viability, T/C",[28],110%
same,"viability, T/C",[29],112%
same,"viability, T/C",[30],108%
same,"viability, T/C",[31],103%
same,"viability, T/C",[32],104%
same,"viability, T/C",[33],95%
same,"viability, T/C",[34],107%
same,"viability, T/C",[35],110%
same,"viability, T/C",[36],97.5%
O=C(Nc1ccc(O)c(NS(=O)(=O)c2ccc(F)cc2)c1)c1ccc(-c2ccccc2)cc1 + COC1C(OC(N)=O)C(O)C(Oc2ccc3c(O)c(NC(=O)c4ccc(O)c(CC=C(C)C)c4)c(=O)oc3c2C)OC1(C)C,IC50,second compound 0.0316 µM,9.1 µM
same,IC50,second compound 0.1 µM,> 10 µM
same,IC50,second compound 0.316 µM,8.62 µM
same,IC50,second compound 1 µM,> 10 µM
same,IC50,second compound 3.16 µM,> 10 µM
same,IC50,second compound 10 µM,> 10 µM
same,"viability, T/C",[1],105%
same,"viability, T/C",[2],96.9%
same,"viability, T/C",[3],94.2%
same,"viability, T/C",[4],109%
same,"viability, T/C",[5],112%
same,"viability, T/C",[6],45.3%
same,"viability, T/C",[7],95.6%
same,"viability, T/C",[8],114%
same,"viability, T/C",[9],105%
same,"viability, T/C",[10],94.6%
same,"viability, T/C",[11],86.3%
same,"viability, T/C",[12],57.1%
same,"viability, T/C",[13],127%
same,"viability, T/C",[14],101%
same,"viability, T/C",[15],104%
same,"viability, T/C",[16],95.7%
same,"viability, T/C",[17],97.7%
same,"viability, T/C",[18],42.6%
same,"viability, T/C",[19],110%
same,"viability, T/C",[20],104%
same,"viability, T/C",[21],108%
same,"viability, T/C",[22],118%
same,"viability, T/C",[23],93.3%
same,"viability, T/C",[24],54.7%
same,"viability, T/C",[25],109%
same,"viability, T/C",[26],114%
same,"viability, T/C",[27],109%
same,"viability, T/C",[28],94.6%
same,"viability, T/C",[29],99.4%
same,"viability, T/C",[30],55.9%
same,"viability, T/C",[31],96.2%
same,"viability, T/C",[32],127%
same,"viability, T/C",[33],106%
same,"viability, T/C",[34],103%
same,"viability, T/C",[35],96.5%
same,"viability, T/C",[36],58.4%
CC(=O)O[C@H]1C(=O)[C@@]2(C)[C@H]([C@H](OC(=O)c3ccccc3)[C@]3(O)C[C@H](OC(=O)[C@H](O)[C@@H](NC(=O)c4ccccc4)c4ccccc4)C(C)=C1C3(C)C)[C@]1(OC(C)=O)CO[C@@H]1C[C@@H]2O + Cc1cccc(N(C)C(=O)C2C(O)CCN2c2nc(C)cc(C(F)(F)F)c2C#N)c1,IC50,second compound 0.0316 µM,0.123 µM
same,IC50,second compound 0.1 µM,0.0917 µM
same,IC50,second compound 0.316 µM,0.0698 µM
same,IC50,second compound 1 µM,0.0734 µM
same,IC50,second compound 3.16 µM,0.0268 µM
same,IC50,second compound 10 µM,< 0.00949 µM
same,"viability, T/C","second compound 0.0316 µM, first compound 0.00949 µM",99.2%
same,"viability, T/C","second compound 0.0316 µM, first compound 0.03 µM",79.7%
same,"viability, T/C","second compound 0.0316 µM, first compound 0.0949 µM",55.1%
same,"viability, T/C","second compound 0.0316 µM, first compound 0.3 µM",35.7%
same,"viability, T/C","second compound 0.0316 µM, first compound 0.949 µM",22%
same,"viability, T/C","second compound 0.0316 µM, first compound 3 µM",24.4%
same,"viability, T/C","second compound 0.1 µM, first compound 0.00949 µM",84.3%
same,"viability, T/C","second compound 0.1 µM, first compound 0.03 µM",70.7%
same,"viability, T/C","second compound 0.1 µM, first compound 0.0949 µM",49.6%
same,"viability, T/C","second compound 0.1 µM, first compound 0.3 µM",31.3%
same,"viability, T/C","second compound 0.1 µM, first compound 0.949 µM",23.2%
same,"viability, T/C","second compound 0.1 µM, first compound 3 µM",20.7%
same,"viability, T/C","second compound 0.316 µM, first compound 0.00949 µM",90.2%
same,"viability, T/C","second compound 0.316 µM, first compound 0.03 µM",68.6%
same,"viability, T/C","second compound 0.316 µM, first compound 0.0949 µM",41.7%
same,"viability, T/C","second compound 0.316 µM, first compound 0.3 µM",33.1%
same,"viability, T/C","second compound 0.316 µM, first compound 0.949 µM",29.8%
same,"viability, T/C","second compound 0.316 µM, first compound 3 µM",23.4%
same,"viability, T/C","second compound 1 µM, first compound 0.00949 µM",84.9%
same,"viability, T/C","second compound 1 µM, first compound 0.03 µM",69.2%
same,"viability, T/C","second compound 1 µM, first compound 0.0949 µM",43.4%
same,"viability, T/C","second compound 1 µM, first compound 0.3 µM",31.6%
same,"viability, T/C","second compound 1 µM, first compound 0.949 µM",21.3%
same,"viability, T/C","second compound 1 µM, first compound 3 µM",23.2%
same,"viability, T/C","second compound 3.16 µM, first compound 0.00949 µM",68.5%
same,"viability, T/C","second compound 3.16 µM, first compound 0.03 µM",48%
same,"viability, T/C","second compound 3.16 µM, first compound 0.0949 µM",33.8%
same,"viability, T/C","second compound 3.16 µM, first compound 0.3 µM",27.5%
same,"viability, T/C","second compound 3.16 µM, first compound 0.949 µM",21.7%
same,"viability, T/C","second compound 3.16 µM, first compound 3 µM",21.4%
same,"viability, T/C","second compound 10 µM, first compound 0.00949 µM",49%
same,"viability, T/C","second compound 10 µM, first compound 0.03 µM",31.2%
same,"viability, T/C","second compound 10 µM, first compound 0.0949 µM",20.4%
same,"viability, T/C","second compound 10 µM, first compound 0.3 µM",23.2%
same,"viability, T/C","second compound 10 µM, first compound 0.949 µM",22.7%
same,"viability, T/C","second compound 10 µM, first compound 3 µM",19.6%
